Laboratory results from patent US20100104524A1, “COSMETIC COMPOSITION FOR SKIN WHITENING COMPRISING ARCTIIN, ARCTIGENIN OR THE MIXTURE THEREOF AS ACTIVE” (priority 2007, published 2010).
Read-outs that look alike come from different tables or passages of the source.

Assays:
Type in all cases: cell-based, mice
tyrosinase [1] = experiment: Expression inhibition I of a melanin synthesis enzyme in melanocyte (tyrosinase band in gel); conditions: for Intensity of tyrosinase band: 100 □/□, 3 days culture, lower intensity = higher inhibition of tyrosinase biosynthesis, controls 123 (Control Exp 1) and 211 (Control Exp 2); for Inhibiting effect on biosynthesis of tyrosinase (in words): compared to Control Example 2 containing only a melanocyte stimulating hormone
Procedure: (§1) α-MSH, for an experiment for melanin synthesis inhibition, was dissolved in 10% DMSO (Dimethyl sulfoxide), and was used as 1 mM solution. B-16 melanoma (ATCC CRL 6323) cell line (derived from mice) was inoculated into a DMEM medium including 4.5 g/L of glucose, 10% serum, and 1% antibiotics, and was subcultured in 75[…] T-flask under 5% CO2 and at 37° C. The subcultured melanoma cell line was cultured in 75[…] T-flask for 24 hours, and was treated with 0.05% Trypsin containing 0.02% EDTA. Then, cells were separated, were inoculated in 75[…] T-flask, and were further cultured for 6 hours. Herein, the number of cells was 1×10^7 cells/flask. Then, a melanocyte-stimulating hormone was diluted in a DMEM medium to a final concentration 100[…]. Next, each of arctiin, arctigenin, matairesinol, oleanolic acid, betulinic acid, rutin, and ursolic acid was diluted in the DMEM medium to a final concentration of 10-1000 □/□ to carry out treatment of melanoma cells, and then, the cells were further cultured at 37° C. for 5 days. Next, the medium was obtained to measure absorbance at 475 nm, and through comparison of melanin synthesis, IC50 (□/□), that is, the density for inhibiting melanin synthesis by 50%, was calculated.
An experiment was carried out in the same manner as described in Experimental Example 1 except that each of arctiin, arctigenin, matairesinol, oleanolic acid, betulinic acid, rutin, and ursolic acid was added, and culture was further carried out for 3 days to obtain cells. Also, in order to compare the expression inhibition of a melanin synthesis enzyme, experiments on Control Example 1 containing no forsythia suspensa active substance and Control Example 2 containing a melanocyte stimulating hormone were carried out. Obtained cells were washed with sodium phosphate buffer two times, were treated with 0.1% triton X-100, and were reacted by a sonicator for 30 seconds. From the reaction solution, cell precipitate and supernatant were separated by using a high-speed centrifuge at 12,000 rpm for 30 minutes at 4° C. From the separated supernatant, protein was separated by using electrophoresis, and was reacted in a reaction solution containing 0.2% DOPA solution for about 8 hours. Then, the production of tyrosinase in gel was measured.

[2] = test system: B-16 melanoma (ATCC CRL 6323) cell line; experiment: Melanin synthesis inhibition by forsythia suspensa active substances (IC50); conditions: for Melanin synthesis inhibition (in words): compared to other substances of Forsythia suspensa; for IC50: Mus musculus, B16, 120 h, read-out: Melanin synthesis inhibition IC50
Procedure: as §1

tyrosinase [3] = experiment: Expression inhibition II of a melanin synthesis enzyme from melanocyte (tyrosinase band in gel); conditions: 100 □/□ substance with melanocyte stimulating hormone 100; 3 days culture; controls 123 and 211
Procedure: The subcultured melanoma cell line was cultured in 75[…] T-flask for 24 hours, and was treated with 0.05% Trypsin containing 0.02% EDTA. Then, cells were separated, were inoculated in 75[…] T-flask, and were further cultured for 6 hours. Herein, the number of cells was 1×10^7 cells/flask. Then, a melanocyte-stimulating hormone was diluted in a DMEM medium to a final concentration 100[…]. Next, each of arctiin, arctigenin, matairesinol, oleanolic acid, betulinic acid, rutin, and ursolic acid was diluted in the DMEM medium to a final concentration of 10-1000 □/□ to carry out treatment of melanoma cells, and then, the cells were further cultured at 37° C. for 5 days. […] An expression inhibiting effect of a melanin synthesis enzyme from melanocyte, which can be achieved by arctiin, arctigenin, or the mixture thereof, was determined. An experiment was carried out in the same manner as described in Experimental Example 1 except that each of arctiin, arctigenin, a 1:3 mixture of arctiin and arctigenin, and a 3:1 mixture of arctiin and arctigenin prepared by Preparation Examples 1 and 2 was added and culture was further carried out for 3 days to obtain cells. […] And then, the production of tyrosinase was measured in electrophoresis gel.

[4] = test system: NIH/3T3 (ATCC CRL 1658) cell line; experiment: Cytotoxicity on fibroblast cell (MTT); conditions: for Cell viability (%): 12 hours, MTT
Procedure: On a fibroblast cell, toxicity of arctiin, arctigenin, a 1:3 mixture of arctiin and arctigenin, and a 3:1 mixture of arctiin and arctigenin prepared by Preparation Examples 1 and 2 was measured, respectively. NIH/3T3 (ATCC CRL 1658) cell line (derived from mice) as a fibroblast cell, which was purchased, was inoculated into a DMEM medium including 4.5 g/L of glucose, 10% serum, and 1% antibiotics, and was subcultured in 75[…] T-flask at 37° C. The subcultured cell line was cultured under 5% CO2 for 24 hours, and then it was treated with 0.05% Trypsin containing 0.02% EDTA. Then, cells were separated, were inoculated into 96-well-flask (1×10^4 cells/well) and stabilized through culture for 6 hours. To the cells, each of arctiin, arctigenin, a 1:3 mixture of arctiin and arctigenin, and a 3:1 mixture of arctiin and arctigenin was added as noted in Table 5, and culture was further carried out for 12 hours. After the culture, 10[…] of MTT (3-(4,5-dimethylthiazol-2-yl) 2,5-diphenyl tetrazolin bromide) solution (5[…]/□) was added in each well, and culture was carried out for 4 hours. Then, 100[…] of DMSO (Dimethyl sulfoxide) solution was added, and absorbance was measured at O.D. 570 nm to calculate the cell viability. […] Herein, the cell viability of 100% was based on the absorbance in the case of no additional substance.

[5] = test system: B-16 melanoma (ATCC CRL 6323) cell line; experiment: Melanin synthesis inhibition (%) by arctiin, arctigenin and the mixture thereof; conditions: n = 3, 5 days
Procedure: The subcultured melanoma cell line was cultured in 75[…] T-flask for 24 hours, and was treated with 0.05% Trypsin containing 0.02% EDTA. Then, cells were separated, were inoculated in 75[…] T-flask, and were further cultured for 6 hours. Herein, the number of cells was 1×10^7 cells/flask. Then, a melanocyte-stimulating hormone was diluted in a DMEM medium to a final concentration 100[…]. Next, each of arctiin, arctigenin, matairesinol, oleanolic acid, betulinic acid, rutin, and ursolic acid was diluted in the DMEM medium to a final concentration of 10-1000 □/□ to carry out treatment of melanoma cells, and then, the cells were further cultured at 37° C. for 5 days. […] An experiment of melanin synthesis inhibition was carried out in the same manner as described in EXPERIMENTAL EXAMPLE 1, except the following processes. […] Next, the medium was obtained to measure absorbance at 475 nm, and melanin synthesis was compared. A melanin synthesis inhibition (%) was calculated according to Mathematical Formula 1, with a control value of cell cultures including only a melanocyte stimulating hormone. […] [formula]

[6] = α-MSH-stimulated B-16 melanoma, 5 days, medium absorbance at 475 nm

COc1cc(CC2C(=O)OCC2Cc2ccc(OC)c(OC)c2)ccc1O (stereo not shown) [Arctigenin, 4-[(3,4-Dimethoxyphenyl)methyl]dihydro-3-[(4-hydroxy-3-metoxyphenyl)methyl]-2(3H)-furanone]
Intensity of tyrosinase band (tyrosinase [1]): 135 | Inhibiting effect on biosynthesis of tyrosinase (in words) (tyrosinase [1]): significantly high inhibiting effects | Melanin synthesis inhibition (in words) [2]: most effective | Strength of tyrosinase band (tyrosinase [3]): 135 | Toxicity determination on cells ([4]; criteria of Table 6): non-toxic | Cell viability (%) ([4]; final concentration 20 □/□): 101.2% | Cell viability (%) ([4]; final concentration 60 □/□): 101.0% | Cell viability (%) ([4]; final concentration 100 □/□): 99.8% | Cell viability (%) ([4]; final concentration 140 □/□): 99.6% | Cell viability (%) ([4]; final concentration 180 □/□): 99.7% | Melanin synthesis inhibition (%) ([5]; final concentration 60 □/□): 66.8% | Melanin synthesis inhibition (%) ([5]; final concentration 100 □/□): 79.6% | Melanin synthesis inhibition (%) ([5]; final concentration 140 □/□): 81.3% | Melanin synthesis inhibition (%) ([5]; final concentration 180 □/□): 84.3%

COc1ccc(CC2COC(=O)C2Cc2ccc(O[C@@H]3O[C@H](CO)[C@@H](O)[C@H](O)[C@H]3O)c(OC)c2)cc1OC (stereo partly shown) [Arctiin, 4-[(3,4-Dimethoxyphenyl)methyl]dihydro-3-[(4-Glucose-3-metoxyphenyl)methyl]-2(3H)-furanone]
Intensity of tyrosinase band (tyrosinase [1]): 155 | Inhibiting effect on biosynthesis of tyrosinase (in words) (tyrosinase [1]): significantly high inhibiting effects | Melanin synthesis inhibition (in words) [2]: most effective | Strength of tyrosinase band (tyrosinase [3]): 155 | Cell viabilities (range over tested concentrations) [4]: 94-100% | Toxicity determination on cells [4]: non-toxic | Melanin synthesis inhibition (%) ([5]; final concentration 60 □/□): 67.3% | Melanin synthesis inhibition (%) ([5]; final concentration 100 □/□): 78.5% | Melanin synthesis inhibition (%) ([5]; final concentration 140 □/□): 80.3% | Melanin synthesis inhibition (%) ([5]; final concentration 180 □/□): 84.2%

C=C(C)[C@@H]1CC[C@]2(C(=O)O)CC[C@]3(C)[C@H](CC[C@@H]4[C@@]5(C)CC[C@H](O)C(C)(C)[C@@H]5CC[C@]43C)[C@@H]12 [Betulinic acid]
Intensity of tyrosinase band (tyrosinase [1]): 170 | IC50 [2, 6]: < 500 µg/mL

COc1cc(C[C@H]2COC(=O)[C@@H]2Cc2ccc(O)c(OC)c2)ccc1O [Matairesinol]
Intensity of tyrosinase band (tyrosinase [1]): 180 | IC50 [2, 6]: < 200 µg/mL

CC1(C)CC[C@]2(C(=O)O)CC[C@]3(C)C(=CC[C@@H]4[C@@]5(C)CC[C@H](O)C(C)(C)[C@@H]5CC[C@]43C)[C@@H]2C1 [Oleanolic acid]
Intensity of tyrosinase band (tyrosinase [1]): 200 | IC50 [2, 6]: < 1000 µg/mL

C[C@@H]1O[C@@H](OC[C@H]2O[C@@H](Oc3c(-c4ccc(O)c(O)c4)oc4cc(O)cc(O)c4c3=O)[C@H](O)[C@@H](O)[C@@H]2O)[C@H](O)[C@H](O)[C@H]1O [Rutin]
Intensity of tyrosinase band (tyrosinase [1]): 150 | IC50 [2]: < 500 µg/mL

C[C@H]1[C@H](C)CC[C@]2(C(=O)O)CC[C@]3(C)C(=CC[C@@H]4[C@@]5(C)CC[C@H](O)C(C)(C)[C@@H]5CC[C@]43C)[C@H]12 [Ursolic acid]
Intensity of tyrosinase band (tyrosinase [1]): 180 | IC50 [2, 6]: < 500 µg/mL
